#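 At the GI50, growth is halved. TGI denotes the concentration required for complete inhibition of growth.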
# Experiments:
# Experiment in all cases: DTP human tumour cell line panel, 384-well format
# [1] = system: NCI-H460 NSCLC
# [2] = system: SF-268 CNS
# [3] = system: NCI-H23 lung
# [4] = system: SN12C renal
# [5] = system: OVCAR-5 ovarian
# [6] = system: SNB-75 CNS
# [7] = system: CCRF-CEM leukemia
# [8] = system: NCI/ADR-RES ovarian
# [9] = system: UACC-257 melanoma
# [10] = system: HL-60(TB) leukemia
# [11] = system: UACC-62 melanoma
# [12] = system: HOP-62 NSCLC
# [13] = system: MCF7 breast
# [14] = system: HOP-92 NSCLC
# [15] = system: SK-MEL-5 melanoma
# [16] = system: LOX IMVI melanoma
# [17] = system: U251 glioblastoma
# [18] = system: SK-MEL-2 melanoma
# [19] = system: NCI-H522 lung
# [20] = system: KM12 colon
# [21] = system: MOLT-4 leukemia
# [22] = system: OVCAR-8 ovarian
# [23] = system: A498 renal
# [24] = system: SF-295 CNS
# [25] = system: CAKI-1 renal
# [26] = system: K-562 leukemia
# [27] = system: HCC-2998 colon
# [28] = system: MDA-MB-468 breast
# [29] = system: DU-145 prostate
# [30] = system: SK-MEL-28 melanoma
# [31] = system: EKVX NSCLC
# [32] = system: HT29 colon
# [33] = system: T-47D breast
# [34] = system: NCI-H322M lung
# [35] = system: M14 melanoma
# [36] = system: SNB-19 CNS
# [37] = system: MALME-3M melanoma
# [38] = system: HS 578T breast
# [39] = system: TK-10 renal
# [40] = system: MDA-MB-435 melanoma
# [41] = system: SK-OV-3 ovarian
# [42] = system: 786-0 renal
# [43] = system: HCT-15 colon
# [44] = system: HCT-116 colon
# [45] = system: OVCAR-4 ovarian
# [46] = system: IGROV1 ovarian
# [47] = system: ACHN renal
structure (smiles),measurement,setting,value
[2H]c1nc(C)nc([2H])c1-c1cc(NC[C@@H](C)c2cccc3c(C(=O)NC)ccnc23)ncn1,GI50,[1],> 100 µM
same,TGI,[1],> 100 µM
same,GI50,[2],> 100 µM
same,TGI,[2],> 100 µM
same,GI50,[3],> 100 µM
same,TGI,[3],> 100 µM
same,GI50,[4],> 100 µM
same,TGI,[4],> 100 µM
same,GI50,[5],> 100 µM
same,TGI,[5],> 100 µM
same,GI50,[6],> 100 µM
same,TGI,[6],> 100 µM
same,GI50,[7],> 100 µM
same,TGI,[7],> 100 µM
same,GI50,[8],> 100 µM
same,TGI,[8],> 100 µM
same,GI50,[9],> 100 µM
same,TGI,[9],> 100 µM
same,GI50,[10],55.8 µM
same,TGI,[10],> 100 µM
same,GI50,[11],> 100 µM
same,TGI,[11],> 100 µM
same,GI50,[12],> 100 µM
same,TGI,[12],> 100 µM
same,GI50,[13],> 100 µM
same,TGI,[13],> 100 µM
same,GI50,[14],> 100 µM
same,TGI,[14],> 100 µM
same,GI50,[15],> 100 µM
same,TGI,[15],> 100 µM
same,GI50,[16],> 100 µM
same,TGI,[16],> 100 µM
same,GI50,[17],> 100 µM
same,TGI,[17],> 100 µM
same,GI50,[18],> 100 µM
same,TGI,[18],> 100 µM
same,GI50,[19],> 100 µM
same,TGI,[19],> 100 µM
same,GI50,[20],> 100 µM
same,TGI,[20],> 100 µM
same,GI50,[21],> 85.7 µM
same,TGI,[21],> 100 µM
same,GI50,[22],> 100 µM
same,TGI,[22],> 100 µM
same,GI50,[23],> 100 µM
same,TGI,[23],> 100 µM
same,GI50,[24],> 100 µM
same,TGI,[24],> 100 µM
same,GI50,[25],> 100 µM
same,TGI,[25],> 100 µM
same,GI50,[26],48.1 µM
same,TGI,[26],> 100 µM
same,GI50,[27],> 100 µM
same,TGI,[27],> 100 µM
same,GI50,[28],> 100 µM
same,TGI,[28],> 100 µM
same,GI50,[29],> 100 µM
same,TGI,[29],> 100 µM
same,GI50,[30],> 100 µM
same,TGI,[30],> 100 µM
same,GI50,[31],> 100 µM
same,TGI,[31],> 100 µM
same,GI50,[32],> 100 µM
same,TGI,[32],> 100 µM
same,GI50,[33],> 100 µM
same,TGI,[33],> 100 µM
same,GI50,[34],> 100 µM
same,TGI,[34],> 100 µM
same,GI50,[35],> 100 µM
same,TGI,[35],> 100 µM
same,GI50,[36],> 100 µM
same,TGI,[36],> 100 µM
same,GI50,[37],> 100 µM
same,TGI,[37],> 100 µM
same,GI50,[38],> 100 µM
same,TGI,[38],> 100 µM
same,GI50,[39],> 100 µM
same,TGI,[39],> 100 µM
same,GI50,[40],> 72.5 µM
same,TGI,[40],> 100 µM
same,GI50,[41],> 100 µM
same,TGI,[41],> 100 µM
same,GI50,[42],> 100 µM
same,TGI,[42],> 100 µM
same,GI50,[43],> 100 µM
same,TGI,[43],> 100 µM
same,GI50,[44],> 100 µM
same,TGI,[44],> 100 µM
same,GI50,[45],> 100 µM
same,TGI,[45],> 100 µM
same,GI50,[46],> 100 µM
same,TGI,[46],> 100 µM
same,GI50,[47],> 100 µM
same,TGI,[47],> 100 µM

# Source: PubChem BioAssay (NCI)
